Measurements published in publication PMC6332093, “Development of Radiolabeled Membrane Type-1 Matrix Metalloproteinase Activatable Cell Penetrating Peptide Imaging Probes” (Molecules, 2015).
Where two headings read alike, the source gives them in different places. Square brackets hold non-standard residues; d marks the D form. Peptide text beside a SMILES is read from it. * marks the point of attachment. DOTA = O=C(O)CN1CCN(CC(=O)O)CCN(CC(=O)*)CCN(CC(=O)O)CC1; AEA = NCCOCC(=O)O

Legend:
[1] = Biodistribution in mouse model of myocardial infarction; type: in vivo; conditions: iv, total radioactivity, 5 h post-injection; for tissue uptake at 5 h: 10 nmol i.v., mean ± SD
Protocol: An in vivo pilot study was performed to assess the in vivo biodistribution of ACPP-B and CPP-B, 5 h post-injection, in a mouse model of myocardial infarction (MI). The conditions were similar to the earlier study with the MMP-2/9 sensitive probe ^177Lu/^125I-ACPP-2/9 [1] to facilitate comparison. We aimed to characterize the in vivo biodistribution of ACPP-B using a dual-isotope approach with ^177Lu, labeled to the polycationic domain, and ^125I, labeled to the polyanionic domain, as orthogonal radiolabels (see Supplemental Information for performed iodination procedures). […] Unfortunately, a >95% radiochemical purity could not be achieved by solid phase extraction (Figure S5), and desalting strategies to remove ^125I could not be applied due to the low molecular weight of the peptide. Therefore, re-design of the ACPP-B peptide structure, to prevent side-reactions during iodination, may enable dual-isotope studies. Hereto, the cysteine residue can be acetylated, but oxidation of the sulfur atom may still occur. Furthermore, this conversion results in a more hydrophobic residue that may impact the MT1-MMP sensitivity of the probe. Substitution of the cysteine by a serine residue will possibly be a more attractive option. Alternatively, iodine may be introduced specifically to the N-terminus via coupling of a ^125I-SHPP moiety (following a similar approach as proposed for iodination of ACPP-C (Figure 1)).
(§1) Here, a single isotope labeled probe ^177Lu-ACPP-B was employed in a pilot in vivo study.
MI was induced by permanent ligation of the left anterior descending coronary artery (LAD) using published procedures. In short, animals were subcutaneously injected with buprenorphine (0.1 mg/kg) and 30 min later anesthetized with isoflurane. Animals were intubated and ventilated with 100% oxygen with a rodent respirator. After left thoracotomy between ribs four and five, the LAD was ligated with a 6–0 prolene suture. The chest and skin were closed with 5–0 silk sutures. The animal’s temperature was continuously measured rectally and maintained at 36.5–37.5 °C during surgery. After surgery, animals were allowed to recover at 30 °C overnight.
(§2) Biodistribution experiments were performed on MI-mice (n = 5 per probe) by i.v.-injection of ^177Lu-ACPP-B (10 nmol/100 µL, ca. 4.0 MBq ^177Lu), or ^177Lu-CPP-B (10 nmol/100 µL, ca. 4.0 MBq ^177Lu). For animals injected with ^177Lu-ACPP-B, blood samples were withdrawn from the vena saphena at selected time points (3, 9, 27, and 81 min), weighed, and diluted to 1 mL with MilliQ water. The mice were anesthetized with isoflurane 5 h after i.v.-injection, subjected to 2% (w/v) Evans Blue i.v.-injection (50 mg/kg) and sacrificed 2 min later by cervical dislocation. Organs and tissues of interest were harvested and weighed. The hearts were cooled to 4 °C, cut in 1 mm slices from apex to base. Infarct, border, and remote areas were isolated based on Evans Blue staining. The ^177Lu radioactivity of all samples was measured in a γ-counter (Wizard 1480; PerkinElmer) along with standards to determine the injected dose per gram (%ID/g). The energy window was set to 155–380 keV. The average probe concentration at time 0 (C0) was calculated by fitting the blood clearance data to the 2-phase exponential decay function Y = span1 × exp(−K1 × X) + span2 × exp(−K2 × X) + Plateau using GraphPad Prism. The area under the curve (AUC) was determined and the blood half-life, the time point at which the AUC reaches 50% of the total AUC, was subsequently derived using MatLab. The average volume of distribution was calculated using the formula VD = dose/(mean body weight × C0) [L/kg].

in vivo = conditions: mouse; for tissue uptake: 10 nmol, total radioactivity
Protocol: as §1
Figure 6 Blood kinetics of ^177Lu-ACPP-B in MI-mice (n = 3). The data are mean %ID/g ± SD and fitted to the 2-phase exponential decay function Y = span1 × exp(−K1 × X) + span2 × exp(−K2 × X) + Plateau. Span1 = 2.61%ID/g, K1 = 1.99 min^−1, Span2 = 7.35%ID/g, K2 = 27.1 min^−1.
as §2

[2] = blood, MI-mice 10 days after MI, γ-counting, n = 5, read-out: Biodistribution, Blood
[3] = brain, MI-mice, n = 5, read-out: Biodistribution, Brain
[4] = fat, MI-mice, n = 5, read-out: Biodistribution, Fat
[5] = heart, infarct area, MI-mice, n = 5, read-out: Biodistribution, Heart, infarct
[6] = heart, remote myocardium, MI-mice, n = 5, read-out: Biodistribution, Heart, remote
[7] = kidney, MI-mice, n = 5, read-out: Biodistribution, Kidney
[8] = liver, MI-mice, n = 5, read-out: Biodistribution, Liver
[9] = lung, MI-mice, n = 5, read-out: Biodistribution, Lung
[10] = muscle, MI-mice, n = 5, read-out: Biodistribution, Muscle
[11] = spleen, MI-mice, n = 5, read-out: Biodistribution, Spleen
[12] = thigh bone, MI-mice, n = 5, read-out: Biodistribution, Thigh bone

Structure (SMILES) | tissue to tissue ratio at 5 h ([1]; kidney and liver, ^177Lu label, 10 nmol, MI-mice, from Table 1) | blood half-life (in vivo; iv) | tissue uptake at 5 h [1, 2] [%ID/g] | tissue uptake at 5 h [1, 3] [%ID/g] | tissue uptake at 5 h [1, 4] [%ID/g] | tissue uptake at 5 h [1, 5] [%ID/g] | tissue uptake at 5 h [1, 6] [%ID/g] | tissue uptake at 5 h [1, 7] [%ID/g] | tissue uptake at 5 h [1, 8] [%ID/g] | tissue uptake at 5 h [1, 9] [%ID/g] | tissue uptake at 5 h [1, 10] [%ID/g] | tissue uptake at 5 h [1, 11] [%ID/g] | tissue uptake at 5 h [1, 12] [%ID/g] | K1 of 2-phase exponential decay fit of blood kinetics (in vivo) [min⁻¹] | K2 of 2-phase exponential decay fit of blood kinetics (in vivo) [min⁻¹] | tissue uptake (in vivo; iv, Span1 of 2-phase exponential decay fit of blood kinetics) [%ID/g] | tissue uptake (in vivo; iv, Span2 of 2-phase exponential decay fit of blood kinetics) [%ID/g]
CC(=O)N[C@H](Cc1ccc(O)cc1)C(=O)N[C@H](CCC(=O)O)C(=O)N[C@H](CCC(=O)O)C(=O)N[C@H](CCC(=O)O)C(=O)N[C@H](CCC(=O)O)C(=O)N[C@H](CCC(=O)O)C(=O)N[C@H](CCC(=O)O)C(=O)N[C@H](CCC(=O)O)C(=O)N[C@H](CCC(=O)O)C(=O)N[C@H](CCC(=O)O)C(=O)NCCOCC(=O)N[C@@H](CS)C(=O)N[C@@H](CCCNC(=N)N)C(=O)N1CCC[C@H]1C(=O)N[C@@H](C)C(=O)N[C@@H](Cc1c[nH]cn1)C(=O)N[C@@H](CC(C)C)C(=O)N[C@@H](CCCNC(=N)N)C(=O)N[C@@H](CC(=O)O)C(=O)N[C@@H](CO)C(=O)NCC(=O)NCCOCC(=O)N[C@H](CCCNC(=N)N)C(=O)N[C@H](CCCNC(=N)N)C(=O)N[C@H](CCCNC(=N)N)C(=O)N[C@H](CCCNC(=N)N)C(=O)N[C@H](CCCNC(=N)N)C(=O)N[C@H](CCCNC(=N)N)C(=O)N[C@H](CCCNC(=N)N)C(=O)N[C@H](CCCNC(=N)N)C(=O)N[C@H](CCCNC(=N)N)C(=O)N[C@H](CCCCNC(=O)CN1CCN(CC(=O)O)CCN(CC(=O)O)CCN(CC(=O)O)CC1)C(N)=O [ACPP-B, Ac-y-e9-X-CRPAHLRDSG-X-r9-k(DOTA)-NH2] (Ac-[dY][dE][dE][dE][dE][dE][dE][dE][dE][dE][AEA]CRPAHLRDSG[AEA][dR][dR][dR][dR][dR][dR][dR][dR][dR][dK](DOTA)-NH2) | 14.9 | ~ 24 min | – | – | – | – | – | – | – | – | – | – | – | – | – | – | –
CC(=O)N[C@H](Cc1ccc(O)cc1)C(=O)N[C@H](CCC(=O)O)C(=O)N[C@H](CCC(=O)O)C(=O)N[C@H](CCC(=O)O)C(=O)N[C@H](CCC(=O)O)C(=O)N[C@H](CCC(=O)O)C(=O)N[C@H](CCC(=O)O)C(=O)N[C@H](CCC(=O)O)C(=O)N[C@H](CCC(=O)O)C(=O)N[C@H](CCC(=O)O)C(=O)NCCOCC(=O)N[C@@H](CS)C(=O)N[C@@H](CCCNC(=N)N)C(=O)N1CCC[C@H]1C(=O)N[C@@H](C)C(=O)N[C@@H](Cc1c[nH]cn1)C(=O)N[C@@H](CC(C)C)C(=O)N[C@@H](CCCNC(=N)N)C(=O)N[C@@H](CC(=O)O)C(=O)N[C@@H](CO)C(=O)NCC(=O)NCCOCC(=O)N[C@H](CCCNC(=N)N)C(=O)N[C@H](CCCNC(=N)N)C(=O)N[C@H](CCCNC(=N)N)C(=O)N[C@H](CCCNC(=N)N)C(=O)N[C@H](CCCNC(=N)N)C(=O)N[C@H](CCCNC(=N)N)C(=O)N[C@H](CCCNC(=N)N)C(=O)N[C@H](CCCNC(=N)N)C(=O)N[C@H](CCCNC(=N)N)C(=O)N[C@H](CCCCNC(=O)CN1CCN(CC(=O)O)CCN(CC(=O)O)CCN(CC(=O)O)CC1)C(N)=O [^177Lu-ACPP-B, metal not drawn] (Ac-[dY][dE][dE][dE][dE][dE][dE][dE][dE][dE][AEA]CRPAHLRDSG[AEA][dR][dR][dR][dR][dR][dR][dR][dR][dR][dK](DOTA)-NH2) | – | – | 0.08 ± 0.03 | 0.01 ± 0.01 | 0.43 ± 0.28 | 0.75 ± 0.15 | 0.11 ± 0.02 | 100 ± 13 | 6.76 ± 0.91 | 0.38 ± 0.09 | 0.09 ± 0.07 | 0.77 ± 0.13 | 1.92 ± 0.73 | 1.99 | 27.1 | 2.61 | 7.35
CC(C)C[C@H](N)C(=O)N[C@@H](CCCNC(=N)N)C(=O)N[C@@H](CC(=O)O)C(=O)N[C@@H](CO)C(=O)NCC(=O)NCCOCC(=O)N[C@H](CCCNC(=N)N)C(=O)N[C@H](CCCNC(=N)N)C(=O)N[C@H](CCCNC(=N)N)C(=O)N[C@H](CCCNC(=N)N)C(=O)N[C@H](CCCNC(=N)N)C(=O)N[C@H](CCCNC(=N)N)C(=O)N[C@H](CCCNC(=N)N)C(=O)N[C@H](CCCNC(=N)N)C(=O)N[C@H](CCCNC(=N)N)C(=O)N[C@H](CCCCNC(=O)CN1CCN(CC(=O)O)CCN(CC(=O)O)CCN(CC(=O)O)CC1)C(N)=O [^177Lu-CPP-B, metal not drawn] (H-LRDSG[AEA][dR][dR][dR][dR][dR][dR][dR][dR][dR][dK](DOTA)-NH2) | – | – | 0.14 ± 0.06 | 0.01 ± 0.01 | 0.16 ± 0.07 | 1.69 ± 0.5 | 0.32 ± 0.11 | 10.1 ± 1.61 | 33.2 ± 3.98 | 0.67 ± 0.25 | 0.1 ± 0.02 | 4.17 ± 0.82 | 2.61 ± 0.25 | – | – | – | –
